# According to patent US7442706B2, “Methods for treating sarcopenia with a growth hormone secretagogue” (priority 2006, dated 2008):
# Tests used:
# [1] = T-score for total appendicular skeletal mass TASM/ht^2 (sarcopenia index); type: in vivo, human
# Description: The primary outcome measures were the effects of increased GH and IGF-I on AVF and FFM; additional outcomes included body weight, fat mass, body water compartments, 24-h GH secretory dynamics, insulin sensitivity, quality of life and physical performance. Because gender and height influence total muscle mass, an index of relative muscle mass was calculated: total ASM from DXA was divided by height squared in meters (TASM (kg)/ht^2). To put changes in FFM in a clinical perspective, a t-score was computed for each individual, relating the TASM/ht^2 to those of gender-specific young adults (12). In accordance with Baumgartner et al., sarcopenia was defined as ≦2 SD below young, gender-specific reference populations (13; 14).
# [2] = Function tests and quality of life questionnaires; type: in vivo, human; details: year 1
# Description: Quality of Life Assessments. Subjects completed 4 questionnaires to assess quality of life and general well-being: the 20-item Short Form Health Survey (SF-20); Beck Depression Inventory (BDI); Pittsburgh Sleep Quality Index (PSQI); and the Body Cathexis Scale (BCS).
# Function. Function tests included walking 30 meters as quickly as possible, walking as far as possible in 6 minutes, descending and ascending 4 flights of stairs and rising and sitting 5 times from an armless chair with an 18″ seat height.
# Correction for Height and Gender. All strength and function measurements were analyzed per kg of skeletal muscle (ASM). Baseline arm ASM and leg ASM were used for shoulder and knee strength, respectively; baseline TASM (sum of arms and legs) was used for the function tests.
# With regard to the quality of life data, a Factor Analysis of the different scales of the questionnaires was performed to create an overall well-being factor (16). Initially, study subjects were used as their own internal controls and assessed if there was change over time in overall well being. Using the hierarchical linear modeling (HLM), a growth curve analysis was conducted, testing within-person linear and curvilinear change in overall well being over time.
# quadriceps muscle = details: canines during remobilization; cited from earlier work
compound,measurement,setting,value
"CC(C)(N)C(=O)N[C@H](COCc1ccccc1)C(=O)N1CCC2(CC1)CN(S(C)(=O)=O)c1ccccc12.CS(=O)(=O)O [MK-677, N-[1(R)-[(1,2-dihydro-1-methanesulfonylspiro[3H-indole-3,4′-piperidin]-1′-yl)carbonyl]-2-(phenylmethyloxy)ethyl]-2-amino-2-methylpropanamide methanesulfonate]",T-scores for TASM/ht^2 vs. placebo,[1]; 12 months,significantly increased
same,subjects with a decrease in t-score (TASM/ht^2),"[1]; end of year 1, 25 mg p.o. daily",7 of 43
same,function or QoL,[2],did not result in changes
same,serum insulin-like growth factor-1 levels,quadriceps muscle,elevated levels of serum insulin-like growth factor-1
same,size and strength of the quadriceps muscle,quadriceps muscle,increased the size and strength of the quadriceps muscle
